From ChEMBL document CHEMBL5038624, “Construction and activity evaluation of novel dual-target (SE/CYP51) anti-fungal agents containing amide naphthyl structure” (Eur J Med Chem, 2022)
In brackets after ≈: the same amount, converted by molar mass. Activity calls are given as the source filed them. No cut-off for these calls is given here.

Legend:
[1] = test system: Candida albicans; assay: Antifungal activity against Candida albicans SC5314 assessed as reduction in fungal growth incubated for 72 hrs by CLSI protocol based broth microdilution method; format: functional
[2] = test system: Nakaseomyces glabratus; assay: Antifungal activity against Candida glabrata ATCC 0001 assessed as reduction in fungal growth incubated for 72 hrs by CLSI protocol based broth microdilution method; format: functional
[3] = test system: Pichia kudriavzevii; assay: Antifungal activity against Candida krusei ATCC 6258 assessed as reduction in fungal growth incubated for 72 hrs by CLSI protocol based broth microdilution method; format: functional
[4] = test system: Candida tropicalis; assay: Antifungal activity against Candida tropicalis ATCC 1369 assessed as reduction in fungal growth incubated for 72 hrs by CLSI protocol based broth microdilution method; format: functional
[5] = test system: Aspergillus fumigatus; assay: Antifungal activity against Aspergillus fumigatus KM8001 assessed as reduction in fungal growth incubated for 72 hrs by CLSI protocol based broth microdilution method; format: functional
[6] = test system: Candida albicans; assay: Antifungal activity against Candida albicans strain 17 assessed as reduction in fungal growth incubated for 72 hrs by CLSI protocol based broth microdilution method; format: functional
[7] = test system: Candida albicans; assay: Antifungal activity against Candida albicans strain CaR assessed as reduction in fungal growth incubated for 72 hrs by CLSI protocol based broth microdilution method; format: functional
[8] = test system: Candida albicans; assay: Antifungal activity against Candida albicans strain 632 assessed as reduction in fungal growth incubated for 72 hrs by CLSI protocol based broth microdilution method; format: functional
[9] = test system: Candida albicans; assay: Antifungal activity against Candida albicans strain 901 assessed as reduction in fungal growth incubated for 72 hrs by CLSI protocol based broth microdilution method; format: functional
[10] = test system: Candida albicans; assay: Antifungal activity against Candida albicans strain 904 assessed as reduction in fungal growth incubated for 72 hrs by CLSI protocol based broth microdilution method; format: functional
[11] = test system: Candida albicans; assay: Antifungal activity against Candida albicans ATCC SC5314 assessed as decrease in fungal cell density by fluorescence microscopy; format: functional, organism-based
[12] = test system: Candida albicans; assay: Induction of apoptosis against Candida albicans ATCC SC5314 assessed as viable cells measured after 48 hrs by Annexin V-FITC/propidium iodide staining based flow cytometry (reference value: 80.78 %); format: functional
[13] = test system: Candida albicans; assay: Induction of apoptosis against Candida albicans ATCC SC5314 assessed as mild apoptotic cells measured after 48 hrs by Annexin V-FITC/propidium iodide staining based flow cytometry (Rvb =0.29 %); format: functional
[14] = test system: Candida albicans; assay: Induction of apoptosis against Candida albicans ATCC SC5314 assessed as necrotic cells measured after 48 hrs by Annexin V-FITC/propidium iodide staining based flow cytometry (reference value: 18.22 %); format: functional
[15] = test system: Candida albicans; assay: Induction of apoptosis against Candida albicans ATCC SC5314 assessed as late apoptotic cells measured after 48 hrs by Annexin V-FITC/propidium iodide staining based flow cytometry (reference value: 0.71 %); format: functional
[16] = test system: Candida albicans; assay: Inhibition of SE/CYP51 in Candida albicans ATCC SC5314 assessed as ergosterol level incubated for 48 hrs by LC/MS analysis; design: scale not given: the % may be the effect or the level left
[17] = test system: Candida albicans; assay: Inhibition of SE/CYP51 in Candida albicans ATCC SC5314 assessed as squalene level incubated for 48 hrs by LC/MS analysis; design: scale not given: the % may be the effect or the level left
[18] = test system: Candida albicans; assay: Inhibition of SE/CYP51 in Candida albicans ATCC SC5314 assessed as lanosterol level incubated for 48 hrs by LC/MS analysis; design: scale not given: the % may be the effect or the level left
[19] = test system: Candida albicans; assay: Inhibition of SE/CYP51 in Candida albicans ATCC SC5314 assessed as eburicol level incubated for 48 hrs by LC/MS analysis; design: scale not given: the % may be the effect or the level left
[20] = test system: Candida albicans; assay: Inhibition of SE/CYP51 in Candida albicans ATCC SC5314 assessed as unknown sterol level incubated for 48 hrs by LC/MS analysis; design: scale not given: the % may be the effect or the level left
[21] = Inhibition of SE in Candida albicans ATCC SC5314 measured after 30 mins by HPLC analysis
[22] = target: Lanosterol 14-alpha demethylase (Candida albicans (strain SC5314 / ATCC MYA-2876) (Yeast), UniProt P10613); assay: Inhibition of CYP51 in Candida albicans ATCC SC5314 measured after 30 mins by HPLC analysis
[23] = test system: Candida albicans; assay: Antifungal activity against Candida albicans ATCC SC5314 infected in mouse assessed as reduction on endothelial fungal infection at 4 mg/kg,ip administrated every 2 days for 14 days by hematoxylin-eosin staining based assay; format: functional, organism-based; conditions: time 14.0 day
[24] = Toxicity in mouse infected with Candida albicans ATCC SC5314 assessed as effect on lung at 4 mg/kg,ip administrated every 2 days for 14 days by hematoxylin-eosin staining based assay; format: organism-based; conditions: in vivo, 336 h, time 14 day
[25] = Toxicity in mouse infected with Candida albicans ATCC SC5314 assessed as effect on liver at 4 mg/kg,ip administrated every 2 days for 14 days by hematoxylin-eosin staining based assay; format: organism-based; conditions: in vivo, 336 h, time 14 day
[26] = Toxicity in mouse infected with Candida albicans ATCC SC5314 assessed as effect on spleen at 4 mg/kg,ip administrated every 2 days for 14 days by hematoxylin-eosin staining based assay; format: organism-based; conditions: in vivo, 336 h, time 14 day
[27] = Toxicity in mouse infected with Candida albicans ATCC SC5314 assessed as effect on kidney at 4 mg/kg,ip administrated every 2 days for 14 days by hematoxylin-eosin staining based assay; format: organism-based; conditions: in vivo, 336 h, time 14 day
[28] = Toxicity in mouse infected with Candida albicans ATCC SC5314 assessed as effect on heart at 4 mg/kg,ip administrated every 2 days for 14 days by hematoxylin-eosin staining based assay; format: organism-based; conditions: in vivo, 336 h, time 14 day
[29] = Toxicity in mouse assessed as effect on aspartate transaminase level; conditions: in vivo
[30] = Toxicity in mouse assessed as effect on alanine transaminase level; conditions: in vivo
[31] = Toxicity in mouse assessed as effect on blood urea nitrogen level; conditions: in vivo
[32] = test system: Candida albicans; assay: Antifungal activity against Candida albicans ATCC SC5314 infected in mouse assessed as decrease in fungal infection at 4 mg/kg,ip administrated every 2 days for 14 days; format: functional, organism-based; conditions: time 14.0 day
[33] = test system: Mus musculus; assay: Antifungal activity against Candida albicans ATCC SC5314 infected in mouse assessed as increase in body weight at 4 mg/kg,ip administrated every 2 days for 14 days; format: functional, organism-based; conditions: time 14.0 day

Sequence of Lanosterol 14-alpha demethylase (P10613 whole entry): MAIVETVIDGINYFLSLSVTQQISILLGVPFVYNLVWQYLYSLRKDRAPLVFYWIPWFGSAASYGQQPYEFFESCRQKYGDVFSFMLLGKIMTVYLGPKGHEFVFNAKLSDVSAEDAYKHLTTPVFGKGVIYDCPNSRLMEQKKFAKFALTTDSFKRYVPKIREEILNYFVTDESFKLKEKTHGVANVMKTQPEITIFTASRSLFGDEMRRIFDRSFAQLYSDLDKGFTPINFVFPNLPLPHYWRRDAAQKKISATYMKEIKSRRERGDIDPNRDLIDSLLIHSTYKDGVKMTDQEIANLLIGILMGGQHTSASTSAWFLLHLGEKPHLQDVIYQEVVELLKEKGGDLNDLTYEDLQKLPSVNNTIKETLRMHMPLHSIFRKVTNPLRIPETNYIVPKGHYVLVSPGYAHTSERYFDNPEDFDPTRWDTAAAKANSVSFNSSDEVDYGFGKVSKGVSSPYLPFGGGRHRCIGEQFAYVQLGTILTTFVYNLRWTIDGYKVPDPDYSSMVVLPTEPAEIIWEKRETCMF

O=C(/C=C/c1cccc2ccccc12)NCC(=O)c1ccccc1
MIC50 [1]: 8 µg/mL (≈ 25.4 µM)

c1ccc2ccccc2c1 [NAPHTHALENE]
MIC50 [1]: > 64 µg/mL

O=C(/C=C/c1cccc2ccccc12)NCc1ccccc1
MIC50 [1]: 8 µg/mL (≈ 27.8 µM)

O=C(/C=C/c1cccc2ccccc12)NC(C(=O)Nc1cccnc1)c1ccccc1 (configuration not stated)
MIC50 [1]: 0.5 µg/mL (≈ 1.23 µM) | MIC50 [2]: 1 µg/mL (≈ 2.45 µM) | MIC50 [3]: 0.5 µg/mL (≈ 1.23 µM) | MIC50 [4]: 0.5 µg/mL (≈ 1.23 µM) | MIC50 [5]: 4 µg/mL (≈ 9.82 µM)

NC(=O)/C=C/c1cccc2ccccc12
MIC50 [1]: 32 µg/mL (≈ 162 µM)

O=C(/C=C/c1cccc2ccccc12)NC(Cn1ccnc1)C(=O)c1ccccc1 (configuration not stated)
MIC50 [1]: 0.25 µg/mL (≈ 0.632 µM) | MIC50 [2]: 0.5 µg/mL (≈ 1.26 µM) | MIC50 [3]: 1 µg/mL (≈ 2.53 µM) | MIC50 [4]: 0.5 µg/mL (≈ 1.26 µM) | MIC50 [5]: > 8 µg/mL

O=C(NC(Cn1cncn1)C(=O)c1ccccc1)c1ccc2ccccc2c1 (configuration not stated)
MIC50 [1]: 0.25 µg/mL (≈ 0.675 µM) | MIC50 [2]: 0.5 µg/mL (≈ 1.35 µM) | MIC50 [3]: 1 µg/mL (≈ 2.7 µM) | MIC50 [4]: 0.25 µg/mL (≈ 0.675 µM) | MIC50 [5]: 4 µg/mL (≈ 10.8 µM)

O=C(/C=C/c1ccc2ccccc2c1)NC(Cn1cncn1)c1ccccc1 (configuration not stated)
MIC50 [1]: 0.25 µg/mL (≈ 0.679 µM) | MIC50 [2]: 0.5 µg/mL (≈ 1.36 µM) | MIC50 [3]: 0.5 µg/mL (≈ 1.36 µM) | MIC50 [4]: 0.25 µg/mL (≈ 0.679 µM) | MIC50 [5]: > 8 µg/mL

O=C(/C=C/c1ccc2ccccc2c1)NC(Cn1cncn1)C(=O)c1ccccc1 (configuration not stated)
MIC50 [1]: 0.125 µg/mL (≈ 0.315 µM) | MIC50 [2]: 0.125 µg/mL (≈ 0.315 µM) | MIC50 [3]: 0.5 µg/mL (≈ 1.26 µM) | MIC50 [4]: 0.25 µg/mL (≈ 0.631 µM) | MIC50 [5]: 2 µg/mL (≈ 5.04 µM) | MIC50 [6]: 4 µg/mL (≈ 10.1 µM) | MIC50 [7]: 2 µg/mL (≈ 5.04 µM) | MIC50 [8]: 2 µg/mL (≈ 5.04 µM) | MIC50 [9]: 4 µg/mL (≈ 10.1 µM) | MIC50 [10]: 4 µg/mL (≈ 10.1 µM) | Activity [11]: Active | Activity [12]: 54.66% | Activity [13]: 0.36% | Activity [14]: 43.87% | Activity [15]: 1.11% | Activity [16]: 16.4% | Activity [17]: 28.9% | Activity [18]: 13.6% | Activity [19]: 34.7% | Activity [20]: 6.4% | IC50 [21]: 650 nM | IC50 [22]: 323 nM | Activity [23]: Active | Activity [24]: Non-Toxic | Activity [25]: Non-Toxic | Activity [26]: Non-Toxic | Activity [27]: Non-Toxic | Activity [28]: Non-Toxic | Activity [29]: 107.5 IU/L | Activity [30]: 96.5 IU/L | Activity [31]: 6.8 mmol/L | Activity [32]: Active | Activity [33]: Active

CN(C/C=C/c1ccccc1)Cc1cccc2ccccc12 [NAFTIFINE]
MIC50 [1]: 0.5 µg/mL (≈ 1.74 µM) | MIC50 [2]: 0.5 µg/mL (≈ 1.74 µM) | MIC50 [3]: 0.25 µg/mL (≈ 0.87 µM) | MIC50 [4]: 0.5 µg/mL (≈ 1.74 µM) | MIC50 [5]: 4 µg/mL (≈ 13.9 µM) | MIC50 [6]: 4 µg/mL (≈ 13.9 µM) | MIC50 [7]: > 8 µg/mL | MIC50 [8]: 4 µg/mL (≈ 13.9 µM) | MIC50 [9]: > 8 µg/mL | MIC50 [10]: 4 µg/mL (≈ 13.9 µM) | Activity [12]: 38.54% | Activity [13]: 0.05% | Activity [14]: 60.92% | Activity [15]: 0.49% | Activity [16]: 24.3% | Activity [17]: 49.5% | Activity [18]: 15.2% | Activity [19]: 5.2% | Activity [20]: 5.8% | IC50 [21]: 469 nM

OC(Cn1cncn1)(Cn1cncn1)c1ccc(F)cc1F [FLUCONAZOLE]
MIC50 [1]: 0.25 µg/mL (≈ 0.816 µM) | MIC50 [2]: 0.5 µg/mL (≈ 1.63 µM) | MIC50 [3]: 0.5 µg/mL (≈ 1.63 µM) | MIC50 [4]: 0.5 µg/mL (≈ 1.63 µM) | MIC50 [5]: > 8 µg/mL | MIC50 [6]: > 8 µg/mL | MIC50 [7]: > 8 µg/mL | MIC50 [8]: > 8 µg/mL | MIC50 [9]: > 8 µg/mL | MIC50 [10]: > 8 µg/mL | Activity [12]: 74.25% | Activity [13]: 0.22% | Activity [14]: 24.61% | Activity [15]: 0.92% | Activity [16]: 26.5% | Activity [17]: 1.8% | Activity [18]: 23.6% | Activity [19]: 41.5% | Activity [20]: 6.6% | IC50 [22]: 134 nM

O=C(NC(Cn1cncn1)c1ccccc1)c1ccc2ccccc2c1 (configuration not stated)
MIC50 [1]: 0.5 µg/mL (≈ 1.46 µM) | MIC50 [2]: 1 µg/mL (≈ 2.92 µM) | MIC50 [3]: 0.5 µg/mL (≈ 1.46 µM) | MIC50 [4]: 0.5 µg/mL (≈ 1.46 µM) | MIC50 [5]: 4 µg/mL (≈ 11.7 µM)

O=C(/C=C/c1ccc2ccccc2c1)NC(Cn1ccnc1)c1ccccc1 (configuration not stated)
MIC50 [1]: 0.5 µg/mL (≈ 1.36 µM) | MIC50 [2]: 0.5 µg/mL (≈ 1.36 µM) | MIC50 [3]: 1 µg/mL (≈ 2.72 µM) | MIC50 [4]: 0.5 µg/mL (≈ 1.36 µM) | MIC50 [5]: 4 µg/mL (≈ 10.9 µM)

O=C(/C=C/c1ccc2ccccc2c1)NC(Cn1ccnc1)C(=O)c1ccccc1 (configuration not stated)
MIC50 [1]: 0.5 µg/mL (≈ 1.26 µM) | MIC50 [2]: 0.25 µg/mL (≈ 0.632 µM) | MIC50 [3]: 0.5 µg/mL (≈ 1.26 µM) | MIC50 [4]: 0.25 µg/mL (≈ 0.632 µM) | MIC50 [5]: > 8 µg/mL

O=C(NC(Cn1ccnc1)c1ccccc1)c1ccc2ccccc2c1 (configuration not stated)
MIC50 [1]: 0.5 µg/mL (≈ 1.46 µM) | MIC50 [2]: 0.25 µg/mL (≈ 0.732 µM) | MIC50 [3]: 0.5 µg/mL (≈ 1.46 µM) | MIC50 [4]: 0.5 µg/mL (≈ 1.46 µM) | MIC50 [5]: > 8 µg/mL
